Columns and labels:
[1] = test system: LN229 MGMT−/MMR− cells; test: Short-term cell viability assay; type: cell-based, human; conditions: Homo sapiens, LN-229
Protocol: (§1) Short-term Cell Viability Assay. Cells were seeded in 96-well plates at 1000 or 2000 cells/well and allowed to adhere at 23° C. for 60 min and then incubated overnight at 37° C. Cells were treated with indicated concentrations of compounds in triplicate for 4-6 days prior to fixation with 3.7% paraformaldehyde and nuclear staining with 1 μg/mL Hoechst 33342 dye. Cells were imaged on a Cytation 3 imaging reader (BioTek) and quantified using CellProfiler software.
Statistical analysis. Statistical analysis was performed using GraphPad Prism software. Data are presented as mean or median±SD or SEM as indicated. For in vitro short-term growth delay experiments, IC50 values were determined from the nonlinear regression equation, [inhibitor] vs normalized response with variable slope. […]
We synthesized the imidazotetrazine 4a (KL-50) and the triazene 4b (KL-85), as vehicles to deliver 2-fluoroethyl diazonium (4c), and a series of related agents to probe structure-activity relationships in tissue culture (FIG. Z1, D and F). […] We evaluated the cytotoxicity of our compounds in short-term cell viability assays against four isogenic LN229 glioblastoma cell lines engineered to be proficient or deficient in MGMT and/or MMR activity, using short hairpin RNAs (shRNAs) targeting MSH2 (referred to as MGMT+/−, MMR+/− cells hereafter; FIG. ZS2A). […]

[2] = test system: LN229 MGMT− cells with shRNA targeting MSH6, MLH1, PMS2, or MSH3; test: Short-term cell viability assay in cells lacking other MMR proteins; type: cell-based, human
Description: FIGS. ZS3A-ZS3J. KL-50 (4a) is effective in TMZ (1a)-resistant cells lacking other MMR proteins. (FIG. ZS3A) Western blotting performed in LN229 MGMT+/− cells with stable expression of shRNA targeting MSH6, MLH1, PMS2, or MSH3 to confirm depletion of the shRNA targets. In shMSH6 cells, there is reduced expression of MSH2, and in shMLH1 cells, there is loss of PMS2, due to destabilization in the setting of loss of their heterodimeric partners. GAPDH serves as loading control. (FIG. ZS3B) (Table S1.) IC50 values derived from short-term viability assays in LN229 MGMT+/− cells lines, +/−shRNA, treated with TMZ (1a) or KL-50 (4a). aMGMT TI (therapeutic index)=IC50 (MGMT+/MMR+) divided by IC50 (MGMT−/MMR+). bMMR RI (resistance index)=IC50 (MGMT−/MMR−) divided by IC50 (MGMT−/MMR+). (FIG. ZS3C) Short-term viability assay curves for TMZ (1a) in LN229 MGMT+/−, MMR+/shMSH6 cells. (FIG. ZS3D) Short-term viability assay curves for KL-50 (4a) in LN229 MGMT+/−, MMR+/shMSH6 cells. (FIG. ZS3E) Short-term viability assay curves for TMZ (1a) in LN229 MGMT+/−, MMR+/shMLH1 cells. (FIG. ZS3F) Short-term viability assay curves for KL-50 (4a) in LN229 MGMT+/−, MMR+/shMLH1 cells. (FIG. ZS3G) Short-term viability assay curves for TMZ (1a) in LN229 MGMT+/−, MMR+/shPMS2 cells. […]
Short-term Cell Viability Assay. […] Cells were imaged on a Cytation 3 imaging reader (BioTek) and quantified using CellProfiler software.

[3] = test system: LN229 MGMT+/−, MMR+/− isogenic lines; test: Short-term cell viability assay with ROS scavenger NAC; type: cell-based, human; conditions: pre-treated with increasing concentrations of NAC
Protocol: FIGS. ZS5A-ZS5D. […] Columns, mean; error bars, SD; n=2 independent analyses. For (FIG. ZS5A) and (FIG. ZS5C), points, mean; error bars, SD; n=3 technical replicates.
as §1

[4] = Maximum tolerated dose study; type: in vivo
Protocol: Healthy mice were treated with escalating doses of KL-50 (4a) (0, 25, 50, 100, and 200 mg/kg×1 dose), and monitored over time for changes in both weights and hematologic profiles. […] As the main dose limiting systemic toxicity of TMZ (1a) is myelosuppression, we measured complete blood counts for all mice on day 0 before treatment and subsequently on day 7 after drug administration.

[5] = test system: O^6-guanine adducts in cellular DNA; conditions: dose of 20 μM; cited from earlier work

Row | SMILES | IC50 [1] [µM] | activity in MGMT− cells lacking MSH6, MLH1, PMS2, or MSH3 (in words) [2] | rescue of toxicity by NAC (in words) [3] | mice observably ill warranting euthanasia ([4]; 200 mg/kg × 1 dose) | weight loss ([4]; 100 or 200 mg/kg × 1 dose, regressed to baseline at the end of one week) | toxicity in the remaining cohorts (in words) ([4]; cohorts below 200 mg/kg × 1 dose) | complete blood counts (in words) ([4]; day 7 after drug administration, all cohorts) | tolerability (in words) ([4]; healthy mice, 0, 25, 50, 100, and 200 mg/kg × 1 dose) | O^6MeG (3) adducts per cell [5]
1 | NC(=O)c1ncn2c(=O)n(CCF)nnc12 [KL-50, 3-(2-fluoroethyl)-4-oxo-3H,4H-imidazo[4,3-d][1,2,3,5]tetrazine-8-carboxamide] | ~20 | confirmed the activity | did not result in rescue | Two of three mice | greater than 10% | no evidence of toxicity | within normal physiological ranges | well-tolerated | –
2 | Cn1nnc2c(C(N)=O)ncn2c1=O [TMZ, temozolomide, reference compound] | – | – | – | – | – | – | – | – | 20,600

Source: patent US20240400572A1, “COMPOUNDS AND METHODS FOR TREATING CANCERS THAT ARE MGMT DEFICIENT REGARDLESS OF MMR STATUS” (Yale University, priority 2021, published 2024)
